According to patent publication US6362226B1, “Modulation of in vivo glutamine and glycine levels in the treatment of autism” (Vanderbilt University, priority 1999, dated 2002):

Test system: autistic patients
Assay: Open-label dextromethorphan treatment of autistic patients B and F with elevated plasma glutamine and/or glycine, rated by treatment-blinded observers
Assay type: in vivo, human
From the text: Autistic patients were screened for elevated plasma levels of glutamine or glycine, or both. Five of 36 patients had elevated levels of either or both amino acids. One patient, “B”, had been diagnosed as having autism […] and 10 months. […] Further, B had elevated levels of glutamine in their cerebrospinal fluid, although their glycine levels were within the normal range. Their routine chemistry lab tests, including their urine organic acid profile, were normal. Patient “F” had persistent elevated glycine levels on multiple amino acid profiles which ranged from 324 to 439 μmol/L, where normal levels are from 120 to 315 μmol/L.
Both patients B and F were treated with dextromethorphan at 5 mg/kg body weight/day in the form of a cough and cold preparation sold under the registered trademark DELSYM® by McNeilLab, Inc. of Spring House, Pa., divided BID.
Example 1 discloses that 5/36 (14%) of children with autism have increased plasma levels of glutamine, glycine or both glutamine and glycine. In Example 1, an autistic patient with elevated glutamine and glycine and an autistic patient with glycine were treated with DM at 5 mg/kg body weight/day. […] The procedures of Example 1, however, were uncontrolled and open-label. In Example 2, treatment of children with autism with PB, SB or combinations of PB, SB and DM is systematically evaluated.

Compound: COc1ccc2c(c1)[C@]13CCCC[C@@H]1[C@H](C2)N(C)CC3 [dextromethorphan]
- response upon resumption of long-term dextromethorphan treatment (patients B and F): responded as before and have continued to respond
- expressive and receptive language skills, attention span and focus, motor planning and socialization with peers (patients B and F, 5 mg/kg body weight/day divided BID as DELSYM, teachers and therapists blinded to treatment): significant improvement
- behavior after withdrawal of dextromethorphan treatment (patients B and F, treatment-blinded observers, all areas previously improved): regression in all of these areas of behavior measurement
- autistic behavior (two autistic patients, DM 5 mg/kg body weight/day, uncontrolled, open-label): clinical improvement
